Measured values published in ChEMBL document CHEMBL1201862, “PubChem BioAssay data set” (2004).
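Each compound was tested at five concentrations against cells in 96-well plates for 48 hours. At the GI50, growth is halved.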 Active and inactive are the calls of the source. Cut-off read from the data, not from the text of the source: active = GI50 up to about 1.1 µM and inactive = higher. Where a SMILES comes first, the peptide text is derived from it. [ ]: non-standard residue; d: D form. The star is where a group is joined. NMeF = CN[C@@H](Cc1ccccc1)C(=O)O; NMeV = CN[C@H](C(=O)O)C(C)C; Boc = CC(C)(C)OC(=O)*; OBn = c1ccc(CO*)cc1

Tests used:
Experiment in all cases: growth of human tumour cells (NCI), 48 h
UACC-62 = test system: UACC-62
HCC 2998 = test system: HCC 2998
A549 = test system: A549
U-251 = test system: U-251
SR = test system: SR
LOX IMVI = test system: LOX IMVI
SK-MEL-28 = test system: SK-MEL-28
PC-3 = test system: PC-3
SN12C = test system: SN12C
Hs-578T = test system: Hs-578T
MOLT-4 = test system: MOLT-4
NCI-H522 = test system: NCI-H522
SNB-75 = test system: SNB-75
OVCAR-8 = test system: OVCAR-8
SF-295 = test system: SF-295
NCI-H23 = test system: NCI-H23
A498 = test system: A498
HCT-116 = test system: HCT-116
NCI/ADR-RES = test system: NCI/ADR-RES
SK-OV-3 = test system: SK-OV-3

Measured: GI50

O=C(CCN1CCCCC1)Nc1ccc2c(c1)C(=O)c1ccc(NC(=O)CCN3CCCCC3)cc1C2=O
inactive: UACC-62 19.9 µM | HCC 2998 4.45 µM | A549 4.84 µM | U-251 4.98 µM | SR 2.47 µM | LOX IMVI 1.75 µM | SK-MEL-28 17.5 µM | PC-3 2.26 µM | SN12C 5.81 µM | Hs-578T 11.7 µM | MOLT-4 3.83 µM | NCI-H522 16.9 µM | SNB-75 3.82 µM | OVCAR-8 5.57 µM | SF-295 5.22 µM | NCI-H23 6.05 µM | A498 13.7 µM | HCT-116 1.71 µM | NCI/ADR-RES 10.9 µM | SK-OV-3 13.2 µM

CC(C)[C@@H](C(=O)N1CCC[C@H]1C(=O)OCc1ccccc1)N(C)C(=O)[C@H](C(C)C)N(C)C(=O)[C@H](Cc1ccccc1)N(C)C(=O)[C@H](NC(=O)OC(C)(C)C)C(C)C (Boc-[dV][NMeF][NMeV][NMeV]P-OBn)
inactive: UACC-62 > 50 µM | HCC 2998 > 50 µM | A549 > 50 µM | U-251 > 50 µM | SR 18.6 µM | LOX IMVI > 50 µM | SK-MEL-28 > 50 µM | PC-3 > 50 µM | SN12C > 50 µM | Hs-578T > 50 µM | MOLT-4 > 50 µM | NCI-H522 > 50 µM | SNB-75 > 50 µM | SF-295 > 50 µM | NCI-H23 > 50 µM | A498 > 50 µM | HCT-116 > 50 µM | NCI/ADR-RES > 50 µM | SK-OV-3 > 50 µM

CCOC(=O)/C(=C\NC(=S)Nc1ccc(OCC)cc1)C(=O)c1ccccc1
inactive: UACC-62 > 100 µM | HCC 2998 > 100 µM | A549 > 100 µM | U-251 > 100 µM | SR > 100 µM | LOX IMVI > 100 µM | SK-MEL-28 > 100 µM | PC-3 > 100 µM | SN12C > 100 µM | Hs-578T 57.9 µM | MOLT-4 > 100 µM | NCI-H522 > 100 µM | SNB-75 44.2 µM | OVCAR-8 > 100 µM | SF-295 > 100 µM | NCI-H23 > 100 µM | A498 20.7 µM | HCT-116 > 100 µM | NCI/ADR-RES > 100 µM | SK-OV-3 > 100 µM

COc1ccc(C(=C2C(=O)OC(=O)C2=C(C)C)c2ccc(OC)cc2)cc1
inactive: UACC-62 > 100 µM | HCC 2998 > 100 µM | A549 67.6 µM | U-251 33.4 µM | SR 38.5 µM | LOX IMVI 34.4 µM | SK-MEL-28 > 100 µM | PC-3 60.4 µM | SN12C > 100 µM | Hs-578T 95.5 µM | MOLT-4 57.4 µM | NCI-H522 23.2 µM | SNB-75 > 100 µM | OVCAR-8 47.4 µM | SF-295 73.5 µM | NCI-H23 > 100 µM | A498 > 100 µM | HCT-116 > 100 µM | NCI/ADR-RES 39.5 µM | SK-OV-3 > 100 µM

CC(NNC(=O)c1cc[n+]([BH2-]C#N)cc1)C(F)(F)F (stereo unspecified)
inactive: UACC-62 > 100 µM | HCC 2998 > 100 µM | A549 > 100 µM | U-251 > 100 µM | SR > 100 µM | LOX IMVI > 100 µM | SK-MEL-28 > 100 µM | PC-3 > 100 µM | SN12C > 100 µM | Hs-578T > 100 µM | MOLT-4 > 100 µM | NCI-H522 > 100 µM | SNB-75 > 100 µM | OVCAR-8 > 100 µM | SF-295 > 100 µM | NCI-H23 > 100 µM | A498 > 100 µM | HCT-116 > 100 µM | NCI/ADR-RES > 100 µM | SK-OV-3 > 100 µM

C/N=c1\sc2nc(C#N)c(C#N)nc2n1C
inactive: UACC-62 18.3 µM | HCC 2998 25.5 µM | A549 18 µM | U-251 22.4 µM | SR > 57 µM | LOX IMVI 17.8 µM | SK-MEL-28 29.2 µM | PC-3 40.2 µM | SN12C 37.9 µM | Hs-578T 31.1 µM | MOLT-4 22.8 µM | NCI-H522 15 µM | SNB-75 19 µM | OVCAR-8 > 10 µM | SF-295 18 µM | NCI-H23 18.3 µM | A498 20.5 µM | HCT-116 18.9 µM | NCI/ADR-RES 25.5 µM | SK-OV-3 28 µM

NC(=O)c1nnsc1NC=O
inactive: UACC-62 > 100 µM | HCC 2998 > 100 µM | A549 > 100 µM | U-251 > 100 µM | SR > 100 µM | LOX IMVI > 100 µM | SK-MEL-28 > 100 µM | PC-3 > 100 µM | SN12C > 100 µM | Hs-578T > 100 µM | MOLT-4 > 100 µM | NCI-H522 > 100 µM | SNB-75 > 100 µM | OVCAR-8 > 100 µM | SF-295 > 100 µM | NCI-H23 > 100 µM | A498 > 100 µM | HCT-116 > 100 µM | NCI/ADR-RES > 100 µM | SK-OV-3 > 100 µM

CC1=NN(c2nc(N)nc(/C(C#N)=C/c3cccn3-c3cc(Cl)cc(Cl)c3)n2)C(C)(C)C1
inactive: UACC-62 > 100 µM | HCC 2998 > 100 µM | A549 > 100 µM | U-251 7.82 µM | SR 1.42 µM | LOX IMVI 83 µM | SK-MEL-28 > 100 µM | PC-3 11.5 µM | SN12C 35.2 µM | Hs-578T 32.9 µM | NCI-H522 > 100 µM | SNB-75 17 µM | OVCAR-8 12 µM | SF-295 > 100 µM | NCI-H23 > 100 µM | A498 > 100 µM | HCT-116 > 100 µM | NCI/ADR-RES > 100 µM | SK-OV-3 > 100 µM

Cn1c2ccccc2n2c3ccccc3c(=S)c(C#N)c12
inactive: UACC-62 > 100 µM | HCC 2998 > 100 µM | A549 > 100 µM | U-251 > 100 µM | SR > 100 µM | LOX IMVI > 100 µM | SK-MEL-28 > 100 µM | PC-3 > 100 µM | Hs-578T > 100 µM | MOLT-4 > 100 µM | NCI-H522 > 100 µM | SNB-75 > 100 µM | OVCAR-8 > 100 µM | SF-295 > 100 µM | NCI-H23 > 100 µM | A498 > 100 µM | HCT-116 > 100 µM | NCI/ADR-RES > 100 µM | SK-OV-3 > 100 µM

O=C(NN1C(=O)C(Cl)C1c1ccc(Cl)cc1)c1c(Cl)c(Cl)c(Cl)c(Cl)c1-c1nc2ccccc2[nH]1 (stereo unspecified)
inactive: UACC-62 15.7 µM | HCC 2998 15.1 µM | A549 26.4 µM | SR 16.6 µM | LOX IMVI 16.5 µM | SK-MEL-28 16.9 µM | PC-3 25.6 µM | SN12C 23 µM | Hs-578T 41.5 µM | MOLT-4 7.33 µM | NCI-H522 13.8 µM | SNB-75 19.2 µM | OVCAR-8 17.8 µM | SF-295 23.9 µM | NCI-H23 21.5 µM | A498 24.8 µM | HCT-116 15.5 µM | NCI/ADR-RES 33 µM | SK-OV-3 42.7 µM
